In patent publication US4112228A, “7-(D-α-Hydroxy-2-arylacetamido)-3-(2-carboxyalkyl-2,3-dihydro-s-tri azolo-[4,3-b]pyridazin-3-on-6-ylthiomethyl)-3-cephem-4-carboxylic acids and derivatives” (priority 1977, dated 1978):
Converted amounts (≈) assume the structure as drawn. Read-outs that look alike come from different tables or passages of the source.

Assays:
E. coli = assay: MIC by Steers' agar dilution method; assay type: cell-based; details: Escherichia coli, read-out: MIC
Shig. flexneri = assay: MIC by Steers' agar dilution method; assay type: cell-based; details: Shigella flexneri, MHA
S. typhimurium = assay: MIC by Steers' agar dilution method; details: Salmonella enterica
P. vulgaris A9436 (Pv-1) = assay: Standard experimental infection (single sc treatment); details: for No. of survivors/No. tested: Run C-808, single sc
K. pneumoniae A9977 = assay: Standard experimental infection in mice; assay type: in vivo; details: for ED50: Klebsiella pneumoniae, A9977, read-out: PD50
Pr. morganii = assay: MIC by Steers' agar dilution method; details: Morganella morganii
S. pyogenes = assay: MIC by Steers' agar dilution method

Q: With `Cn1nnnc1SCC1=C(C(=O)O)N2C(=O)[C@@H](NC(=O)[C@H](O)c3ccccc3)[C@H]2SC1` [Cefamandole, cefamandole, reference compound] as the molecule, how does the MIC (E. coli; Ec-46 A15164, MHA, Table 3) read?
A: The MIC was 12.5 µg/mL (≈ 27 µM).

Q: What about the MIC (E. coli; Ec-47 A15170, MHA, Table 3) of the same molecule?
A: The MIC was 50 µg/mL (≈ 108 µM).

Q: What about the MIC (E. coli; Ec-49 A20107, MHA, Table 3) of the same molecule?
A: The MIC was 0.2 µg/mL (≈ 0.432 µM).

Q: And the MIC (E. coli; Ec-50 A20109, MHA, Table 3)?
A: Its MIC is 0.8 µg/mL (≈ 1.73 µM).

Q: And the MIC (E. coli; Ec-51 A20343 (β-lactamase), HIA, Table 4)?
A: Its MIC is 25 µg/mL (≈ 54.1 µM).

Q: And the MIC (E. coli; Ec-51 A20343 (β-lactamase), MHA, Table 4)?
A: Its MIC is 25 µg/mL (≈ 54.1 µM).

Q: What about the MIC (E. coli; Ec-51 A20343 (β-lactamase), NA, Table 4) of the same molecule?
A: Its MIC is 12.5 µg/mL (≈ 27 µM).

Q: And the MIC (E. coli; Ec-51 A20343, MHA, Table 3)?
A: Its MIC is 12.5 µg/mL (≈ 27 µM).

Q: What about the MIC (E. coli; Ec-56 A20365, MHA, Table 3) of the same molecule?
A: The MIC was 12.5 µg/mL (≈ 27 µM).

Q: And the MIC (E. coli; Ec-58 A9675, MHA, Table 3)?
A: Its MIC is 1.6 µg/mL (≈ 3.46 µM).

Q: What about the MIC (E. coli; Ec-59 A20766, MHA, Table 3) of the same molecule?
A: Its MIC is 0.8 µg/mL (≈ 1.73 µM).

Q: What about the MIC (E. coli; Ec-62 A20895, MHA, Table 3) of the same molecule?
A: The MIC was 0.8 µg/mL (≈ 1.73 µM).

Q: What about the MIC (E. coli; Juhl A15119, MHA, Table 1) of the same molecule?
A: The MIC was 0.4 µg/mL (≈ 0.865 µM).

Q: What about the MIC (E. coli; Juhl, MHA, Example 10) of the same molecule?
A: The MIC was 0.8 µg/mL (≈ 1.73 µM).

Q: What about the MIC (E. coli; NIHJ, MHA, Example 10) of the same molecule?
A: The MIC was 0.05 µg/mL (≈ 0.108 µM).

Q: What about the MIC (E. coli; NIHJ, MHA, Table 1) of the same molecule?
A: The MIC was 0.025 µg/mL (≈ 0.0541 µM).

Q: And the MIC (E. coli; strain not named (1st of 3), MHA, Example 10)?
A: The MIC was 0.1 µg/mL (≈ 0.216 µM).

Q: And the MIC (E. coli; strain not named (2nd of 3), MHA, Example 10)?
A: Its MIC is 0.1 µg/mL (≈ 0.216 µM).

Q: What about the MIC (E. coli; strain not named (3rd of 3), MHA, Example 10) of the same molecule?
A: Its MIC is 1.6 µg/mL (≈ 3.46 µM).

Q: What about the MIC (Shig. flexneri; A9684, Table 1) of the same molecule?
A: Its MIC is 6.3 µg/mL (≈ 13.6 µM).

Q: What about the MIC (Shig. flexneri; Example 10) of the same molecule?
A: The MIC was 6.3 µg/mL (≈ 13.6 µM).

Q: What about the MIC (Shig. flexneri; Sr-1 A9684, Table 3) of the same molecule?
A: The MIC was 3.1 µg/mL (≈ 6.7 µM).

Q: And the MIC (S. typhimurium)?
A: The MIC was 0.2 µg/mL (≈ 0.432 µM).

Q: And the ED50 (P. vulgaris A9436 (Pv-1); Proteus vulgaris, in Mus musculus, sc, read-out: PD50)?
A: The ED50 was 36 mg/kg.

Q: What about the “No. of survivors/No. tested” value (P. vulgaris A9436 (Pv-1); 0.8 mg./kg.) of the same molecule?
A: The value was 0/5.

Q: And the “No. of survivors/No. tested” value (P. vulgaris A9436 (Pv-1); 3.1 mg./kg.)?
A: Its value is 0/5.

Q: And the “No. of survivors/No. tested” value (P. vulgaris A9436 (Pv-1); 12.5 mg./kg.)?
A: The value was 1/5.

Q: What about the “No. of survivors/No. tested” value (P. vulgaris A9436 (Pv-1); 50 mg./kg.) of the same molecule?
A: Its value is 3/5.

Q: And the “No. of survivors/No. tested” value (K. pneumoniae A9977; 0.4 mg./kg., Table 6)?
A: The value was 0/5.

Q: And the “No. of survivors/No. tested” value (K. pneumoniae A9977; 1.6 mg./kg., Table 6)?
A: Its value is 0/5.

Q: What about the “No. of survivors/No. tested” value (K. pneumoniae A9977; 6.3 mg./kg., Table 6) of the same molecule?
A: The value was 1/5.

Q: And the “No. of survivors/No. tested” value (K. pneumoniae A9977; 25 mg./kg., Table 6)?
A: Its value is 5/5.

Q: And the ED50 (K. pneumoniae A9977; Run C-805, 3×10^3 LD50, single sc)?
A: The ED50 was 9.4 mg/kg.

Q: What about the ED50 (K. pneumoniae A9977; Table 6) of the same molecule?
A: Its ED50 is 6.25 mg/kg.

Q: What about the “No. of survivors/No. tested” value (K. pneumoniae A9977; Run C-805, 3×10^3 LD50, single sc, 0.4 mg./kg.) of the same molecule?
A: The value was 0/5.

Q: And the “No. of survivors/No. tested” value (K. pneumoniae A9977; Run C-805, 3×10^3 LD50, single sc, 1.6 mg./kg.)?
A: Its value is 0/5.

Q: And the “No. of survivors/No. tested” value (K. pneumoniae A9977; Run C-805, 3×10^3 LD50, single sc, 6.3 mg./kg.)?
A: The value was 1/5.

Q: And the “No. of survivors/No. tested” value (K. pneumoniae A9977; Run C-805, 3×10^3 LD50, single sc, 25 mg./kg.)?
A: The value was 5/5.

Q: What about the MIC (Pr. morganii; A9553, MHA, Table 1) of the same molecule?
A: Its MIC is > 100 µg/mL.

Q: What about the MIC (Pr. morganii; A20031, MHA, Table 1) of the same molecule?
A: Its MIC is 0.8 µg/mL (≈ 1.73 µM).

Q: And the MIC (Pr. morganii; Pg-1 A9553 (β-lactamase), HIA, Table 4)?
A: Its MIC is > 100 µg/mL.

Q: And the MIC (Pr. morganii; Pg-1 A9553 (β-lactamase), MHA, Table 4)?
A: Its MIC is > 100 µg/mL.

Q: And the MIC (Pr. morganii; Pg-1 A9553 (β-lactamase), NA, Table 4)?
A: The MIC was > 100 µg/mL.

Q: What about the MIC (Pr. morganii; Pg-1 A9553, MHA, Table 3) of the same molecule?
A: The MIC was > 100 µg/mL.

Q: And the MIC (Pr. morganii; Pg-2 A20031, HIA, Table 4)?
A: The MIC was 0.8 µg/mL (≈ 1.73 µM).

Q: And the MIC (Pr. morganii; Pg-2 A20031, MHA, Table 3)?
A: Its MIC is 1.6 µg/mL (≈ 3.46 µM).

Q: What about the MIC (Pr. morganii; Pg-2 A20031, MHA, Table 4) of the same molecule?
A: Its MIC is 0.8 µg/mL (≈ 1.73 µM).

Q: And the MIC (Pr. morganii; Pg-2 A20031, NA, Table 4)?
A: The MIC was 0.4 µg/mL (≈ 0.865 µM).

Q: What about the MIC (Pr. morganii; Pg-3 A9636, MHA, Table 3) of the same molecule?
A: Its MIC is 1.6 µg/mL (≈ 3.46 µM).

Q: And the MIC (Pr. morganii; Pg-5 A15166, MHA, Table 3)?
A: Its MIC is 0.2 µg/mL (≈ 0.432 µM).

Q: What about the MIC (Pr. morganii; Pg-6 A20455 (β-lactamase), HIA, Table 4) of the same molecule?
A: The MIC was 3.1 µg/mL (≈ 6.7 µM).

Q: What about the MIC (Pr. morganii; Pg-6 A20455 (β-lactamase), MHA, Table 4) of the same molecule?
A: Its MIC is 1.6 µg/mL (≈ 3.46 µM).

Q: And the MIC (Pr. morganii; Pg-6 A20455 (β-lactamase), NA, Table 4)?
A: The MIC was 1.6 µg/mL (≈ 3.46 µM).

Q: What about the MIC (Pr. morganii; Pg-6 A20455, MHA, Table 3) of the same molecule?
A: Its MIC is 1.6 µg/mL (≈ 3.46 µM).

Q: And the MIC (Pr. morganii; Pg-7 A20457, MHA, Table 3)?
A: The MIC was 0.8 µg/mL (≈ 1.73 µM).

Q: What about the MIC (Pr. morganii; Pg-8 A15153, MHA, Table 3) of the same molecule?
A: The MIC was 0.8 µg/mL (≈ 1.73 µM).

Q: And the MIC (Pr. morganii; Pg-9 A15149, MHA, Table 3)?
A: The MIC was 3.1 µg/mL (≈ 6.7 µM).

Q: What about the MIC (Pr. morganii; strain not given (1st of 2), MHA, Example 10) of the same molecule?
A: Its MIC is > 100 µg/mL.

Q: What about the MIC (Pr. morganii; strain not named (2nd of 2), MHA, Example 10) of the same molecule?
A: Its MIC is 0.8 µg/mL (≈ 1.73 µM).

Q: And the MIC (S. pyogenes)?
A: The MIC was 0.1 µg/mL (≈ 0.216 µM).

Q: And the MIC (S. pyogenes; Sp-2 Dick, MHA, Table 2)?
A: Its MIC is 0.1 µg/mL (≈ 0.216 µM).

Q: What about the MIC (S. pyogenes; Sp-3 A9604, MHA, Table 2) of the same molecule?
A: Its MIC is 0.1 µg/mL (≈ 0.216 µM).

Q: And the MIC (S. pyogenes; Sp-5 A15040, MHA, Table 2)?
A: The MIC was 0.1 µg/mL (≈ 0.216 µM).

Q: What about the MIC (S. pyogenes; Sp-6 A20066, MHA, Table 2) of the same molecule?
A: Its MIC is 0.1 µg/mL (≈ 0.216 µM).

Q: What about the MIC (S. pyogenes; Sp-7 Dig 7, MHA, Table 2) of the same molecule?
A: Its MIC is 0.1 µg/mL (≈ 0.216 µM).

Q: What about the MIC (S. pyogenes; Sp-8 A15041, MHA, Table 2) of the same molecule?
A: Its MIC is 0.1 µg/mL (≈ 0.216 µM).

Q: What about the MIC (S. pyogenes; Sp-9 A20201, MHA, Table 2) of the same molecule?
A: The MIC was 0.1 µg/mL (≈ 0.216 µM).

Q: And the MIC (S. pyogenes; Sp-10 A20202, MHA, Table 2)?
A: Its MIC is 0.1 µg/mL (≈ 0.216 µM).

Q: What about the MIC (S. pyogenes; Streptococcus pyogenes) of the same molecule?
A: The MIC was 0.1 µg/mL (≈ 0.216 µM).
